Results: US12516060B2, “Solid freebase forms of 5-chloro-2-(4-((2-hydroxy-2-methylpropyl)amino)pyrido[3,4-d]pyridazin-1-yl)phenol for inhibiting NLRP3 and uses thereof” (Ventus Therapeutics U.S., Inc., priority 2023, dated 2026)
“Also recorded” adds a separate entry of the source.

Tests used:
Format in all cases: physicochemical
[1] = Dynamic Vapor Sorption (DVS)
Experimental: DVS was performed using TA Instruments Q5000SA. The sample (5-15 mg) was loaded into a metallic quartz sample pan, suspended from a microbalance, and exposed to a humidified stream of nitrogen gas. Weight changes were relative to a matching empty reference pan opposite the sample, suspended from the microbalance. The sample was held for a minimum of 10 min at each level and only progressed to the next humidity level if there was <0.002% change in weight between measurements (interval: 5 s) or 45 min had elapsed (for 5-65% RH) or 2 h had elapsed (for 80 and 95% RH). Mass change by DVS is related to hygroscopicity.

[2] = Solid form stability studies, 75% RH at 40° C. for one week (XRPD and HPLC)
Experimental: Solid form stability studies were performed on Form I-V freebase forms by weighing approximately 10-15 mg of the crystalline material into 4 mL vials and covering with a lab grade task wipe (Kimwipe). These vials were placed inside a stability chamber set at 75%±5% relative humidity (RH) at 40° C.±2° C., where they were left for one week (7 full days). The retrieved material was then analyzed by XRPD and HPLC. In each case, the initial material and tested material were identical by XRPD, with the exception of Form I freebase, where an extra peak at 5.8 °2θ in the initial material was absent after the stability test. HPLC purities of the tested material were essentially unchanged from those of the initial material.

[3] = Second set of competitive slurry experiments (Form V vs Form I and Form II)
Experimental: A second set of competitive slurry experiments was set up in three solvent systems and two temperatures to assess the relative stability of Form V freebase with respect to Form I freebase and Form II freebase. […] In all samples, the input seed patterns were observed less than 1 min after addition. […] After 7 days, the quantity of Form II freebase remaining in the RT acetonitrile sample was greatly diminished, though Form II freebase was still present in trace quantities.

CC(C)(O)CNc1nnc(-c2ccc(Cl)cc2O)c2ccncc12 [Form V freebase, 5-chloro-2-(4-((2-hydroxy-2-methylpropyl)amino)pyrido[3,4-d]pyridazin-1-yl)phenol]
DVS mass change 5-95% RH (wt. %) ([1]; 5-95% RH): 0.20 wt. %
water uptake, weight gain between 5-95% relative humidity (RH) ([1]; DVS, 5-95% RH): about 0.20%
hygroscopicity ([1]; DVS, all adsorbed water lost during the drying cycle): slightly, hygroscopic
relative hygroscopicity among the Forms studied by DVS ([1]; Forms I-V): least hygroscopic
XRPD pre- and post-DVS ([1]; form stability after DVS cycle): remained unchanged
XRPD (tested material) ([2]; 75% ± 5% RH at 40° C. ± 2° C. for 1 week): Form V
Purity % a/a (tested material) ([2]; HPLC, after 75% ± 5% RH at 40° C. ± 2° C. for 1 week): 99.60 % a/a
Purity % a/a (input material) ([2]; HPLC, before stability test): 99.46 % a/a
solid-form and chemical stability at elevated RH ([2]; one-week at 75% RH and 40° C.): no form change or purity decrease
form observed by XRPD after 3 days ([3]; acetonitrile, MeOH, acetone:water (7:3 vol.), RT and 50° C., 3 days): the sole form observed in all experiments, except in acetonitrile at RT
relative (thermodynamic) stability vs Form I and Form II ([3]; second set of slurries, various solvent systems): favored over both Form I and II freebase; also recorded: most thermodynamically stable form studied
